Results as given in ChEMBL document CHEMBL1150522, “Preparation and antifungal activity of fusacandin analogs: C-6 sidechain esters” (1996).
≈ marks a conversion by molar mass, not a printed value.

Legend:
Format in all cases: functional
[1] = tested on: Candida albicans; experiment: Minimum inhibitory concentration against Candida albicans (CCH 442) in the presence of serum
[2] = tested on: Candida albicans; experiment: Minimum inhibitory concentration against Candida albicans (ATCC 10231) in the absence of serum.
[3] = tested on: Candida albicans; experiment: Minimum inhibitory concentration against Candida albicans (ATCC 10231) in the presence of serum
[4] = tested on: Candida albicans; experiment: Minimum inhibitory concentration against Candida albicans (ATCC 38247) in the absence of serum.
[5] = tested on: Candida albicans; experiment: Minimum inhibitory concentration against Candida albicans (ATCC 38247) in the presence of serum
[6] = tested on: Candida albicans; experiment: Minimum inhibitory concentration against Candida albicans (ATCC 62376) in the absence of serum.
[7] = tested on: Candida albicans; experiment: Minimum inhibitory concentration against Candida albicans (ATCC 62376) in the presence of serum
[8] = tested on: Candida albicans; experiment: Minimum inhibitory concentration against Candida albicans (CCH 442) in the absence of serum.
[9] = tested on: Candida albicans; experiment: Minimum inhibitory concentration against Candida albicans (579a) in the absence of serum.
[10] = tested on: Candida albicans; experiment: Minimum inhibitory concentration against Candida albicans (579a) in the presence of serum

Row | MIC [1] [µg/mL] | MIC [2] [µg/mL] | MIC [3] [µg/mL] | MIC [4] [µg/mL] | MIC [5] [µg/mL] | MIC [6] [µg/mL] | MIC [7] [µg/mL] | MIC [8] [µg/mL] | MIC [9] [µg/mL] | MIC [10] [µg/mL] | SMILES
1 | 6.25 | > 100 | 12.5 | > 100 | 6.25 | > 100 | 12.5 | > 100 | > 100 | 6.25 | CCCCC/C=C/C=C/[C@@H](O)C/C=C/C=C/C(=O)O[C@@H]1[C@@H](O)[C@H](c2c(O)cc(O)cc2CO)O[C@H](CO)[C@H]1O[C@@H]1O[C@H](COC(=O)c2ccc(-c3ccc(O)cc3)cc2)[C@H](O)[C@H](O)[C@H]1O[C@@H]1O[C@H](CO)[C@H](O)[C@H](O)[C@H]1O
2 | 1.56 | > 100 | 1.56 | > 100 | 1.56 | > 100 | 3.12 | > 100 | > 100 | 0.78 | CCCCC/C=C/C=C/[C@@H](O)C/C=C/C=C/C(=O)O[C@@H]1[C@@H](O)[C@H](c2c(O)cc(O)cc2CO)O[C@H](CO)[C@H]1O[C@@H]1O[C@H](COC(=O)/C=C/C=C/CCCCCC)[C@H](O)[C@H](O)[C@H]1O[C@@H]1O[C@H](CO)[C@H](O)[C@H](O)[C@H]1O
3 | 6.25 | 50 (≈ 46.2 µM) | 6.25 | 100 (≈ 92.3 µM) | 6.25 | 50 (≈ 46.2 µM) | 1.56 | 50 (≈ 46.2 µM) | 50 (≈ 46.2 µM) | 1.56 | CCCCC/C=C/C=C/[C@@H](O)C/C=C/C=C/C(=O)O[C@@H]1[C@@H](O)[C@H](c2c(O)cc(O)cc2CO)O[C@H](CO)[C@H]1O[C@@H]1O[C@H](COC(=O)c2ccc(-c3ccccc3OC)cc2)[C@H](O)[C@H](O)[C@H]1O[C@@H]1O[C@H](CO)[C@H](O)[C@H](O)[C@H]1O
4 | 1.56 | 50 (≈ 48.7 µM) | 3.12 | > 100 | 0.78 | 25 (≈ 24.3 µM) | 3.12 | 50 (≈ 48.7 µM) | 50 (≈ 48.7 µM) | 0.78 | CCCCC/C=C/C=C/[C@@H](O)C/C=C/C=C/C(=O)O[C@@H]1[C@@H](O)[C@H](c2c(O)cc(O)cc2CO)O[C@H](CO)[C@H]1O[C@@H]1O[C@H](COC(=O)c2ccc3ccccc3c2)[C@H](O)[C@H](O)[C@H]1O[C@@H]1O[C@H](CO)[C@H](O)[C@H](O)[C@H]1O
